Measurements as given in patent US8772253B2, “Aureolic acid derivatives, the method for preparation thereof and the uses” (Entrechem, S.L., priority 2009, dated 2014).
Read-outs that look alike come from different tables or passages of the source.

Experiments:
Type in all cases: cell-based
[1] = system: H116 (colon adenocarcinoma); experiment: MTT cell proliferation (cytotoxicity) assay, H116; settings: read-out: IC50 or concentration required to achieve 50% growth inhibition compared to untreated cells, H116 (colon)
Procedure: (§1) MTM and CRM derivatives were assayed against a collection of tumor cell lines. Tumor cell lines were obtained from The American Type and Culture Collection (ATCC), and the lines were the following; A549 (human lung carcinoma); H116 (colon adenocarcinoma); PSN1 (pancreatic adenocarcinoma) and T98G (human glyoblastoma). Cells were cultured in medium RPM1 containing 2 mM glutamine, 50 IU/ml penicillin and 50 μg/ml streptomycin. Culture medium for cell lines A549 and H116 was supplemeted with 5% FBS and culture medium for cell lines PSN1 and T98G was supplemented with 10% FBS.
(§2) The evaluation of compound cytotoxicity was carried out by determining cell viability using an assay based on metabolic reduction of 3-(4,5-dimethyl-2-thiazolyl)-2,5-diphenyltetrazolium bromide (MTT; Sigma Chemical Co. St. Louis, Mo.). This reduction reaction is carried out by mitochondrion succinate dehydrogenase of viable cells and produce formazan, a chromogenic compound that can be quantified by spectrophotometry.
(§3) The assay was carried out following the procedure described by Mosmann (J. Immunol. Methods 1983, 65, 55). Tumor cells were incubated in 96 well microtitre plates containing 200 μl of complete medium (with 4×10^3 cells/well for A549 and 6×10^3 cells/well for H116, PSN1 and T98G). Serial dilutions in DMSO of the test compounds (10 μg/ml, 5 μg/ml, 1 μg/ml, 0.5 μg/ml, 0.1 μg/ml, 0.05 μg/ml, 0.01 μg/ml, y 0.005 μg/ml) were added and after 2 days incubation (at 37° C., 5% CO2 and high relative humidity), 50 μl of MTT (1 mg/ml in PBS) was added to each well. The plates were incubated at 37° C. for 2 hours and the reduction product (formazan) was resuspended in 100 μl of DMSO and quantified at 490 nm with a spectrophotometer.

[2] = system: PSN1 (pancreatic adenocarcinoma); experiment: MTT cell proliferation (cytotoxicity) assay, PSN1; settings: read-out: IC50 or concentration required to achieve 50% growth inhibition compared to untreated cells, PSN1 (pancreatic adenocarcinoma)
Procedure: as §1, §2, §3

[3] = system: A549 (human lung carcinoma); experiment: MTT cell proliferation (cytotoxicity) assay, A549; settings: read-out: IC50 or concentration required to achieve 50% growth inhibition compared to untreated cells, A549 (lung)
Procedure: as §1, §2, §3

[4] = system: T98G (human glyoblastoma); experiment: MTT cell proliferation (cytotoxicity) assay, T98G; settings: read-out: IC50 or concentration required to achieve 50% growth inhibition compared to untreated cells, T98G (glyoblastoma)
Procedure: as §1, §2, §3

[5] = H116 cells, MTT, 2 days incubation, triplicate
[6] = PSN1 cells, MTT, 2 days incubation, triplicate, read-out: IC50 or concentration required to achieve 50% growth inhibition compared to untreated cells, PSN1 (prostate)
[7] = A549 cells, MTT, 2 days incubation, triplicate
[8] = T98G cells, MTT, 2 days incubation, triplicate
[9] = 48 h, H116 cells, MTT, 2 days incubation, triplicate
[10] = Homo sapiens, 48 h, PSN1 cells, MTT, 2 days incubation, triplicate, read-out: IC50 or concentration required to achieve 50% growth inhibition compared to untreated cells, PSN1 (prostate)
[11] = Homo sapiens, 48 h, A549 cells, MTT, 2 days incubation, triplicate
[12] = Homo sapiens, 48 h, T98G cells, MTT, 2 days incubation, triplicate

Compound | IC50 [1, 9] | IC50 [2, 10] | IC50 [3, 11] | IC50 [4, 12] | other results
CO[C@H](C(=O)C(C)=O)[C@@H]1Cc2cc3cc(O[C@H]4C[C@@H](O[C@H]5C[C@@H](O)[C@H](O)[C@@H](C)O5)[C@H](O)[C@@H](C)O4)c(C)c(O)c3c(O)c2C(=O)[C@H]1O[C@H]1C[C@@H](O[C@H]2C[C@@H](O[C@H]3C[C@](C)(O)[C@H](O)[C@@H](C)O3)[C@@H](O)[C@@H](C)O2)[C@H](O)[C@@H](C)O1 [MTM-SDK, reference compound] |  |  |  |  | IC50 [1, 5]: 9.4 nM; IC50 [2, 6]: 9.4 nM; IC50 [3, 7]: 9.4 nM; IC50 [4, 8]: 47.4 nM
CCCC(=O)O[C@H](C)[C@H](O)C(=O)[C@@H](OC)[C@@H]1Cc2cc3cc(O[C@H]4C[C@@H](O[C@H]5C[C@@H](O)[C@H](O)C(C)O5)[C@H](O)C(C)O4)c(C)c(O)c3c(O)c2C(=O)[C@H]1O[C@H]1C[C@@H](O[C@H]2C[C@@H](O[C@H]3C[C@](C)(O)[C@H](O)C(C)O3)[C@@H](O)C(C)O2)[C@H](O)C(C)O1 (some centres unmarked) [(XXXI)] | 43 nM | 43 nM | 43 nM | 43 nM | 
CO[C@H](C(=O)C(C)=O)[C@@H]1Cc2cc3cc(O[C@H]4C[C@@H](O[C@H]5C[C@@H](O)[C@H](O)C(C)O5)[C@H](O)C(C)O4)c(C)c(O)c3c(O)c2C(=O)[C@H]1O[C@H]1C[C@@H](O[C@H]2C[C@@H](O)[C@@H](O)C(C)O2)[C@H](O)C(C)O1 (some centres unmarked) [(VIII)] | 50 nM | 100 nM | 50 nM | 300 nM | 
3D-demycarosyl-MTM-SK [reference compound] |  |  |  |  | IC50 [1, 5]: 500 nM; IC50 [2, 6]: 1000 nM; IC50 [3, 7]: 1000 nM; IC50 [4, 8]: > 1000 nM
CO[C@H](C(=O)[C@@H](O)[C@@H](C)O)[C@@H]1Cc2cc3cc(O[C@H]4C[C@@H](O[C@H]5C[C@@H](O)[C@H](O)C(C)O5)[C@H](O)C(C)O4)c(C)c(O)c3c(O)c2C(=O)[C@H]1O[C@H]1C[C@@H](O[C@H]2C[C@@H](O[C@H]3C[C@](C)(O)[C@H](OC(C)=O)C(C)O3)[C@@H](O)C(C)O2)[C@H](O)C(C)O1 (some centres unmarked) [(XII)] | 10 nM | 50 nM | 50 nM | 300 nM | 
C/C=C/C(=O)O[C@@H]1C[C@H](O[C@@H]2C[C@H](Oc3cc4cc5c(c(O)c4c(O)c3C)C(=O)[C@@H](O[C@H]3C[C@@H](O[C@H]4C[C@@H](O[C@H]6C[C@](C)(O)[C@H](O)C(C)O6)[C@@H](O)C(C)O4)[C@H](O)C(C)O3)[C@H]([C@H](OC)C(=O)[C@@H](O)[C@@H](C)O)C5)OC(C)[C@H]2O)OC(C)[C@H]1O (some centres unmarked) [(LI)] | 43 nM | 43 nM | 43 nM | 87 nM | 
CO[C@H](C(=O)[C@@H](O)[C@@H](C)OC(=O)CCC(=O)O)[C@@H]1Cc2cc3cc(O[C@H]4C[C@@H](O[C@H]5C[C@@H](O)[C@H](O)C(C)O5)[C@H](O)C(C)O4)c(C)c(O)c3c(O)c2C(=O)[C@H]1O[C@H]1C[C@@H](O[C@H]2C[C@@H](O[C@H]3C[C@](C)(O)[C@H](O)C(C)O3)[C@@H](O)C(C)O2)[C@H](O)C(C)O1 (some centres unmarked) [(LII)] | 420 nM | 420 nM | 420 nM | 844 nM | 
CO[C@@H]([C@@H]1Cc2cc3cc(O[C@H]4C[C@@H](O[C@H]5C[C@@H](O)[C@H](O)[C@@H](C)O5)[C@H](O)[C@@H](C)O4)c(C)c(O)c3c(O)c2C(=O)[C@H]1O[C@H]1C[C@@H](O[C@H]2C[C@@H](O[C@H]3C[C@](C)(O)[C@H](O)[C@@H](C)O3)[C@@H](O)[C@@H](C)O2)[C@H](O)[C@@H](C)O1)[C@@H](O)C(C)=O [MTM-SK, reference compound] |  |  |  |  | IC50 [1, 5]: 9.4 nM; IC50 [2, 6]: 9.4 nM; IC50 [3, 7]: 9.4 nM; IC50 [4, 8]: 47.3 nM
CO[C@@H]([C@@H]1Cc2cc3cc(O[C@H]4C[C@@H](O[C@H]5C[C@@H](O)[C@H](O)C(C)O5)[C@H](O)C(C)O4)c(C)c(O)c3c(O)c2C(=O)[C@H]1O[C@H]1C[C@@H](O[C@H]2C[C@@H](O[C@H]3C[C@](C)(O)[C@H](O)C(C)O3)[C@@H](O)C(C)O2)[C@H](O)C(C)O1)[C@@H](O)C(C)=O (some centres unmarked) [(XIV)] | 10 nM | 50 nM | 50 nM | 750 nM | 
CO[C@H](C(=O)[C@@H](O)[C@@H](C)O)[C@@H]1Cc2cc3cc(O[C@H]4C[C@@H](O[C@H]5C[C@@H](O)[C@H](OC(=O)CCC(=O)O)C(C)O5)[C@H](O)C(C)O4)c(C)c(O)c3c(O)c2C(=O)[C@H]1O[C@H]1C[C@@H](O[C@H]2C[C@@H](O[C@H]3C[C@](C)(O)[C@H](O)C(C)O3)[C@@H](O)C(C)O2)[C@H](O)C(C)O1 (some centres unmarked) [(LIII)] | 844 nM | 633 nM | 4210 nM | 844 nM | 
CO[C@@H]([C@@H]1Cc2cc3cc(O[C@H]4C[C@@H](O[C@H]5C[C@@H](O)[C@H](OC(C)=O)C(C)O5)[C@H](O)C(C)O4)c(C)c(O)c3c(O)c2C(=O)[C@H]1O[C@H]1C[C@@H](O[C@H]2C[C@@H](O[C@H]3C[C@](C)(O)[C@H](O)C(C)O3)[C@@H](O)C(C)O2)[C@H](O)C(C)O1)[C@@H](O)C(C)=O (some centres unmarked) [(LXIX)] | 9 nM | 45 nM | 9 nM | 4 nM | 
CO[C@@H]([C@@H]1Cc2cc3cc(O[C@H]4C[C@@H](O[C@H]5C[C@@H](O)[C@H](O)C(C)O5)[C@H](O)C(C)O4)c(C)c(O)c3c(O)c2C(=O)[C@H]1O[C@H]1C[C@@H](O[C@H]2C[C@@H](O[C@H]3C[C@@H](O)[C@H](O)C(C)O3)[C@@H](O)C(C)O2)[C@H](O)C(C)O1)[C@@H](O)C(C)=O (some centres unmarked) [(VII)] | 10 nM | 100 nM | 50 nM | 300 nM | 
CO[C@H](C(=O)C(C)=O)[C@@H]1Cc2cc3cc(O[C@H]4C[C@@H](O[C@H]5C[C@@H](O)[C@H](O)C(C)O5)[C@H](O)C(C)O4)c(C)c(O)c3c(O)c2C(=O)[C@H]1O[C@H]1C[C@@H](O[C@H]2C[C@@H](O[C@H]3C[C@@H](O)[C@H](O)C(C)O3)[C@@H](O)C(C)O2)[C@H](O)C(C)O1 (some centres unmarked) [(IX)] |  |  |  |  | IC50 ([1]; H116, 48 h): 5 nM; IC50 ([2]; Homo sapiens, PSN1, 48 h): 5 nM; IC50 ([3]; Homo sapiens, A549, 48 h): 5 nM; IC50 ([4]; Homo sapiens, T98G, 48 h): 10 nM
CCCC(=O)O[C@@H]1C[C@H](O[C@@H]2C[C@H](Oc3cc4cc5c(c(O)c4c(O)c3C)C(=O)[C@@H](O[C@H]3C[C@@H](O[C@H]4C[C@@H](O[C@H]6C[C@](C)(O)[C@H](O)C(C)O6)[C@@H](O)C(C)O4)[C@H](O)C(C)O3)[C@H]([C@H](OC)C(=O)[C@@H](O)[C@@H](C)O)C5)OC(C)[C@H]2O)OC(C)[C@H]1O (some centres unmarked) [(XLVI)] | 43 nM | 43 nM | 433 nM | 43 nM | 
3D-demycarosyl-3D-β-D-digitoxosyl-MTM [reference compound] |  |  |  |  | IC50 [1, 5]: 46.6 nM; IC50 [2, 6]: 46.6 nM; IC50 [3, 7]: 46.6 nM; IC50 [4, 8]: 69 nM
CO[C@@H]([C@@H]1Cc2cc3cc(O[C@H]4C[C@@H](O[C@H]5C[C@@H](OC(C)=O)[C@H](O)C(C)O5)[C@H](O)C(C)O4)c(C)c(O)c3c(O)c2C(=O)[C@H]1O[C@H]1C[C@@H](O[C@H]2C[C@@H](O[C@H]3C[C@](C)(O)[C@H](O)C(C)O3)[C@@H](O)C(C)O2)[C@H](O)C(C)O1)[C@@H](O)C(C)=O (some centres unmarked) [(LXI)] | 9 nM | 6.5 nM | 45 nM | 45 nM | 
CO[C@H](C(=O)[C@@H](O)[C@@H](C)O)[C@@H]1Cc2cc3cc(O[C@H]4C[C@@H](O[C@H]5C[C@@H](OC(=O)CCC(=O)O)[C@H](O)C(C)O5)[C@H](O)C(C)O4)c(C)c(O)c3c(O)c2C(=O)[C@H]1O[C@H]1C[C@@H](O[C@H]2C[C@@H](O[C@H]3C[C@](C)(O)[C@H](O)C(C)O3)[C@@H](O)C(C)O2)[C@H](O)C(C)O1 (some centres unmarked) [(LV)] | 4210 nM | 422 nM | 4210 nM | 4210 nM | 
